Patent publication US20260062422A1 (Halda Therapeutics OpCo, Inc., priority 2022, published 2026)

test system: VCaP cells; assay: Cellular growth inhibition assay for VCaP cells, CellTiter-Glo; assay type: cell-based, human; settings: 72 hours treatment, CellTiter-Glo 2.0
In short: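 GI50 values come from four-parameter curve fits of luminescence data normalized to a zero baseline. Compound, in medium with 0.5% DMSO, was added one day after plating and left for 72 h before CellTiter-Glo 2.0 addition.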

Row | Compound | GI50 [nM]
1 | Cc1sc2c(c1C)C(c1ccc(Cl)cc1)=N[C@@H](CC(=O)NCCCCCOC1CCN(c3ncc(C(=O)N[C@H]4C(C)(C)[C@H](Oc5ccc(C#N)c(Cl)c5)C4(C)C)cn3)CC1)c1nnc(C)n1-2 [Compound I-22, N-((1r,3r)-3-(3-chloro-4-cyanophenoxy)-2,2,4,4-tetramethylcyclobutyl)-2-(4-((5-(2-((S)-4-(4-chlorophenyl)-2,3,9-trimethyl-6H-thieno[3,2-A][1,2,4]triazolo[4,3-a][1,4]diazepin-6-yl)acetamido)pentyl)oxy)piperidin-1-yl)pyrimidine-5-carboxamide] | < 500

same assay, conditions: Homo sapiens, VCaP, 72 h, 72 hours treatment, CellTiter-Glo 2.0

Row | Compound | GI50 [nM]
2 | CCNC(=O)C[C@@H]1N=C(c2ccc(CCCC3CCN(c4ncc(C(=O)N[C@H]5C(C)(C)[C@H](Oc6ccc(C#N)c(Cl)c6)C5(C)C)cn4)CC3)cc2)c2c(sc(C)c2C)-n2c(C)nnc21 [Compound I-95] | 1500 to 3000
3 | Cc1sc2c(c1C)C(c1ccc(C#CCN3CCN(c4ncc(C(=O)N[C@H]5C(C)(C)[C@H](Oc6ccc(C#N)c(Cl)c6)C5(C)C)cn4)CC3)cc1)=N[C@@H](CC(=O)OC(C)(C)C)c1nnc(C)n1-2 [Compound I-55] | > 3000
4 | Cc1sc2c(c1C)C(c1ccc(CCCOC3CCN(c4ncc(C(=O)N[C@H]5C(C)(C)[C@H](Oc6ccc(C#N)c(Cl)c6)C5(C)C)cn4)CC3)cc1)=N[C@@H](CC(=O)NC(C)C)c1nnc(C)n1-2 [Compound I-100] | 500 to 1500
5 | Cc1sc2c(c1C)C(c1ccc(CCCOC3CCN(c4ncc(C(=O)N[C@H]5C(C)(C)[C@H](Oc6ccc(C#N)c(Cl)c6)C5(C)C)cn4)CC3)cc1)=N[C@@H](C)c1nnc(C)n1-2 [Compound I-228, N-[3-(3-chloro-4-cyano-phenoxy)-2,2,4,4-tetramethyl-cyclobutyl]-2-[4-[3-[4-[(9S)-4,5,9,13-tetramethyl-3-thia-1,8,11,12-tetrazatricyclo [8.3.0.02,6]trideca-2(6),4,7,10,12-pentaen-7-yl]phenyl]propoxy]-1-piperidyl]pyrimidine-5-carboxamide] | < 500
6 | Cc1sc2c(c1C)C(c1ccc(CC3CN(CC4CCN(c5ncc(C(=O)N[C@H]6C(C)(C)[C@H](Oc7ccc(C#N)c(Cl)c7)C6(C)C)cn5)CC4)C3)cc1)=N[C@@H](Cc1ncco1)c1nnc(C)n1-2 [Compound I-153] | < 500
7 | Cc1sc2c(c1C)C(c1ccc(O[C@H]3CC[C@@]4(CCCN(c5ncc(C(=O)N[C@H]6C(C)(C)[C@H](Oc7ccc(C#N)c(Cl)c7)C6(C)C)cn5)C4)CC3)cc1)=N[C@@H](Cc1ncco1)c1nnc(C)n1-2 [Compound I-172] | 500 to 1500
8 | Cc1sc2c(c1C)C(c1ccc(N3CC(CC4CCN(c5ncc(C(=O)N[C@H]6C(C)(C)[C@H](Oc7ccc(C#N)c(Cl)c7)C6(C)C)cn5)CC4)C3)cc1)=N[C@@H](C)c1nnc(C)n1-2 [Compound I-270] | 1500 to 3000
9 | CCNC(=O)C[C@@H]1N=C(c2ccc(OCCOC3CCN(c4ncc(C(=O)N[C@H]5C(C)(C)[C@H](Oc6ccc(C#N)c(Cl)c6)C5(C)C)cn4)CC3)c(F)c2)c2c(sc(C)c2C)-n2c(C)nnc21 [Compound I-76] | 500 to 1500
10 | Cc1sc2c(c1C)C(c1ccc(OCCOC3CCN(c4ncc(C(=O)N[C@H]5C(C)(C)[C@H](Oc6ccc(C#N)c(Cl)c6)C5(C)C)cn4)CC3)cc1)=N[C@@H](CC(=O)OC(C)(C)C)c1nnc(C)n1-2 [Compound I-235, tert-butyl 2-((S)-4-(4-(2-((1-(5-(((1r,3r)-3-(3-chloro-4-cyanophenoxy)-2,2,4,4-tetramethylcyclobutyl)carbamoyl)pyrimidin-2-yl)piperidin-4-yl)oxy)ethoxy)phenyl)-2,3,9-trimethyl-6H-thieno[3,2-f][1,2,4]triazolo[4,3-a][1,4]diazepin-6-yl)acetate] | < 500
11 | Cc1sc2c(c1C)C(c1ccc(Cl)cc1)=N[C@@H](CC(=O)NCCOCCOCCOCCOCCN(C)c1ncc(C(=O)N[C@H]3C(C)(C)[C@H](Oc4ccc(C#N)c(Cl)c4)C3(C)C)cn1)c1nnc(C)n1-2 [Compound I-3, N-((1r,3r)-3-(3-chloro-4-cyanophenoxy)-2,2,4,4-tetramethylcyclobutyl)-2-((1-((S)-4-(4-chlorophenyl)-2,3,9-trimethyl-6H-thieno[3,2-f][1,2,4]triazolo[4,3-a][1,4]diazepin-6-yl)-2-oxo-6,9,12,15-tetraoxa-3-azaheptadecan-17-yl)(methyl)amino)pyrimidine-5-carboxamide] | < 500
12 | CCNC(=O)C[C@@H]1N=C(c2ccc(N3CCC(N(C)C4CCN(c5ncc(C(=O)N[C@H]6C(C)(C)[C@H](Oc7ccc(C#N)c(Cl)c7)C6(C)C)cn5)CC4)CC3)cc2)c2c(sc(C)c2C)-n2c(C)nnc21 [Compound I-113] | < 500
13 | CCN(C)C(=O)C[C@@H]1N=C(c2ccc(OCCOC3CCN(c4ncc(C(=O)N[C@H]5C(C)(C)[C@H](Oc6ccc(C#N)c(Cl)c6)C5(C)C)cn4)CC3)cc2)c2c(sc(C)c2C)-n2c(C)nnc21 [Compound I-66] | < 500
14 | Cc1sc2c(c1C)C(c1ccc(CC3CC(C4CCN(c5ncc(C(=O)N[C@H]6C(C)(C)[C@H](Oc7ccc(C#N)c(Cl)c7)C6(C)C)cn5)CC4)C3)cc1)=NC(Cc1ncco1)c1nnc(C)n1-2 (stereo partly drawn) [Compound I-136] | < 500
15 | CCNC(=O)C[C@@H]1N=C(c2ccc(OC3CCN(c4ncc(C(=O)N[C@H]5C(C)(C)[C@H](Oc6ccc(C#N)c(Cl)c6)C5(C)C)cn4)CC3)cc2)c2c(sc(C)c2C)-n2c(C)nnc21 [Compound I-61] | 500 to 1500
16 | Cc1sc2c(c1C)C(c1ccc(C#CC3CC4(CCN(c5ncc(C(=O)N[C@H]6C(C)(C)[C@H](Oc7ccc(C#N)c(Cl)c7)C6(C)C)cn5)CC4)C3)cc1)=N[C@@H](Cc1ncco1)c1nnc(C)n1-2 [Compound I-267] | < 500
17 | CCNC(=O)C[C@@H]1N=C(c2ccc(OCCOC3CCN(c4ncc(C(=O)N[C@H]5C(C)(C)[C@H](Oc6ccc(C#N)c(Cl)c6)C5(C)C)cn4)CC3)c(F)c2F)c2c(sc(C)c2C)-n2c(C)nnc21 [Compound I-73] | < 500
18 | Cc1sc2c(c1C)C(c1ccc(CCC3CC4(CCCN(c5ncc(C(=O)N[C@H]6C(C)(C)[C@H](Oc7ccc(C#N)c(Cl)c7)C6(C)C)cn5)C4)C3)cc1)=N[C@@H](Cc1ncco1)c1nnc(C)n1-2 [Compound I-241] | > 3000
19 | CCNC(=O)C[C@@H]1N=C(c2ccc(N(C)C3CN(CC4CCN(c5ncc(C(=O)N[C@H]6C(C)(C)[C@H](Oc7ccc(C#N)c(Cl)c7)C6(C)C)cn5)CC4)C3)cc2)c2c(sc(C)c2C)-n2c(C)nnc21 [Compound I-119] | 500 to 1500
20 | Cc1sc2c(c1C)C(c1ccc(CC3CC4(CCN(c5ncc(C(=O)N[C@H]6C(C)(C)[C@H](Oc7ccc(C#N)c(Cl)c7)C6(C)C)cn5)CC4)C3)cc1)=N[C@@H](C)c1nnc(C)n1-2 [Compound I-436] | > 3000
21 | Cc1sc2c(c1C)C(c1ccc(OC3CC4(CCN(c5ncc(C(=O)N[C@H]6C(C)(C)[C@H](Oc7ccc(C#N)c(Cl)c7)C6(C)C)cn5)CC4)C3)cc1)=N[C@@H](Cc1ncco1)c1nnc(C)n1-2 [Compound I-49, N-[3-(3-chloro-4-cyano-phenoxy)-2,2,4,4-tetramethyl-cyclobutyl]-2-[2-[4-[(9S)-4,5,13-trimethyl-9-(oxazol-2-ylmethyl)-3-thia-1,8,11,12-tetrazatricyclo[8.3.0.02,6]trideca-2(6),4,7,10,12-pentaen-7-yl]phenoxy]-7-azaspiro[3.5]nonan-7-yl]pyrimidine-5-carboxamide] | < 500
22 | CCNC(=O)C[C@@H]1N=C(c2ccc(OCCOC3CCN(c4ncc(C(=O)N[C@H]5C(C)(C)[C@H](Oc6ccc(C#N)c(Cl)c6)C5(C)C)cn4)CC3)cc2)c2c(sc(C)c2C)-n2c(C)nnc21 [Compound I-60, N-((1r,3r)-3-(3-chloro-4-cyanophenoxy)-2,2,4,4-tetramethylcyclobutyl)-2-(4-(2-(4-((S)-6-(2-(ethylamino)-2-oxoethyl)-2,3,9-trimethyl-6H-thieno[3,2-f][1,2,4]triazolo[4,3-a][1,4]diazepin-4-yl)phenoxy)ethoxy)piperidin-1-yl)pyrimidine-5-carboxamide] | 500 to 1500
23 | COCC[C@@H]1N=C(c2ccc(CCCOC3CCN(c4ncc(C(=O)N[C@H]5C(C)(C)[C@H](Oc6ccc(C#N)c(Cl)c6)C5(C)C)cn4)CC3)cc2)c2c(sc(C)c2C)-n2c(C)nnc21 [Compound I-227, N-[3-(3-chloro-4-cyano-phenoxy)-2,2,4,4-tetramethyl-cyclobutyl]-2-[4-[3-[4-[(9S)-9-(2-methoxyethyl)-4,5,13-trimethyl-3-thia-1,8,11,12-tetrazatricyclo[8.3.0.02,6]trideca-2(6),4,7,10,12-pentaen-7-yl]phenyl]propoxy]-1-piperidyl]pyrimidine-5-carboxamide] | > 3000
24 | Cc1sc2c(c1C)C(c1ccc(C[C@H]3C[C@@H]([C@@H]4CCCN(c5ncc(C(=O)N[C@H]6C(C)(C)[C@H](Oc7ccc(C#N)c(Cl)c7)C6(C)C)cn5)C4)C3)cc1)=N[C@@H](Cc1ncco1)c1nnc(C)n1-2 [Compound I-161] | < 500
25 | CCNC(=O)C[C@@H]1N=C(c2ccc(OC3CCN(C4CCN(c5ncc(C(=O)N[C@H]6C(C)(C)[C@H](Oc7ccc(C#N)c(Cl)c7)C6(C)C)cn5)CC4)C3)cc2)c2c(sc(C)c2C)-n2c(C)nnc21 (stereo partly drawn) [Compound I-85] | < 500
26 | CCNC(=O)C[C@@H]1N=C(c2ccc(N(C)CCN3CCN(c4ncc(C(=O)N[C@H]5C(C)(C)[C@H](Oc6ccc(C#N)c(Cl)c6)C5(C)C)cn4)CC3)cc2)c2c(sc(C)c2C)-n2c(C)nnc21 [Compound I-108] | 500 to 1500
27 | Cc1sc2c(c1C)C(c1ccc(N3CC(C4CCN(c5ncc(C(=O)N[C@H]6C(C)(C)[C@H](Oc7ccc(C#N)c(Cl)c7)C6(C)C)cn5)CC4)C3)cc1)=NC(Cc1ncco1)c1nnc(C)n1-2 (stereo partly drawn) [Compound I-209] | < 500
28 | Cc1sc2c(c1C)C(c1ccc(OC3CC4(CCN(c5ncc(C(=O)N[C@H]6C(C)(C)[C@H](Oc7ccc(C#N)c(Cl)c7)C6(C)C)cn5)CC4)C3)cc1)=NC(Cc1ncco1)c1nnc(C)n1-2 (stereo partly drawn) [Compound I-166] | < 500
29 | CCNC(=O)C[C@@H]1N=C(c2ccc(Oc3ncc(C(=O)N[C@H]4C(C)(C)[C@H](Oc5ccc(C#N)c(Cl)c5)C4(C)C)cn3)cc2)c2c(sc(C)c2C)-n2c(C)nnc21 [Compound I-84] | 500 to 1500
30 | CCNC(=O)C[C@@H]1N=C(c2ccc(N(C)CC3CN(c4ncc(C(=O)N[C@H]5C(C)(C)[C@H](Oc6ccc(C#N)c(Cl)c6)C5(C)C)cn4)C3)cc2)c2c(sc(C)c2C)-n2c(C)nnc21 [Compound I-107] | < 500
